These results are taken from patent publication US20080234276A1, “Heterocyclic Triazines as Hypoxic Selective Protein Kinase Inhibitors” (SENTINEL ONCOLOGY LIMITED, priority 2005, published 2008).

What all share (format): biochemical
The target in test [1] is T1, Abl (h) (Homo sapiens, UniProt P00519).
T1 construct: purchased Upstate Ltd
Nature of the test: Abl (h) kinase assay (Upstate, 33P-ATP filtermat). As to conditions: 100 uM of inhibitor; ATP 45 uM. On the procedure: (§1) The compounds of the invention prepared in Examples 1-32 were tested for kinase inhibition against a range of common protein kinases. All kinase assays were conducted at Upstate Ltd, Gemini Crescent, Dundee Technology Park, Dundee, DD2 1SW, UK in accordance with its standard protocols as follows:
(§2) In a final reaction volume of 25 μl, Abl (h) (5-10 mU) is incubated with 8 mM MOPS pH 7.0, 0.2 mM EDTA, 50 μM EAIYAAPFAKKK, 10 mM MgAcetate and [[…]-33P-ATP] (specific activity approx. 500 cpm/pmol, concentration as required). The reaction is initiated by the addition of the MgATP mix. After incubation for 40 minutes at room temperature, the reaction is stopped by the addition of 5 μl of a 3% phosphoric acid solution. 10 μl of the reaction is then spotted onto a P30 filtermat and washed three times for 5 minutes in 75 mM phosphoric acid and once in methanol prior to drying and scintillation counting.
(§3) Data for compounds. ATP concentrations are: Arg=45 uM; abl=45 uM; AuroraA=15 uM; Chk1=90 uM; KDR=90 uM; P70S6=15 uM. Figures represent the % inhibition when tested at 100 uM of inhibitor.

The target of test [2] is T2, Arg (h) (Homo sapiens, UniProt P42684).
T2 construct: purchased Upstate Ltd
T2 sequence (P42684 whole entry): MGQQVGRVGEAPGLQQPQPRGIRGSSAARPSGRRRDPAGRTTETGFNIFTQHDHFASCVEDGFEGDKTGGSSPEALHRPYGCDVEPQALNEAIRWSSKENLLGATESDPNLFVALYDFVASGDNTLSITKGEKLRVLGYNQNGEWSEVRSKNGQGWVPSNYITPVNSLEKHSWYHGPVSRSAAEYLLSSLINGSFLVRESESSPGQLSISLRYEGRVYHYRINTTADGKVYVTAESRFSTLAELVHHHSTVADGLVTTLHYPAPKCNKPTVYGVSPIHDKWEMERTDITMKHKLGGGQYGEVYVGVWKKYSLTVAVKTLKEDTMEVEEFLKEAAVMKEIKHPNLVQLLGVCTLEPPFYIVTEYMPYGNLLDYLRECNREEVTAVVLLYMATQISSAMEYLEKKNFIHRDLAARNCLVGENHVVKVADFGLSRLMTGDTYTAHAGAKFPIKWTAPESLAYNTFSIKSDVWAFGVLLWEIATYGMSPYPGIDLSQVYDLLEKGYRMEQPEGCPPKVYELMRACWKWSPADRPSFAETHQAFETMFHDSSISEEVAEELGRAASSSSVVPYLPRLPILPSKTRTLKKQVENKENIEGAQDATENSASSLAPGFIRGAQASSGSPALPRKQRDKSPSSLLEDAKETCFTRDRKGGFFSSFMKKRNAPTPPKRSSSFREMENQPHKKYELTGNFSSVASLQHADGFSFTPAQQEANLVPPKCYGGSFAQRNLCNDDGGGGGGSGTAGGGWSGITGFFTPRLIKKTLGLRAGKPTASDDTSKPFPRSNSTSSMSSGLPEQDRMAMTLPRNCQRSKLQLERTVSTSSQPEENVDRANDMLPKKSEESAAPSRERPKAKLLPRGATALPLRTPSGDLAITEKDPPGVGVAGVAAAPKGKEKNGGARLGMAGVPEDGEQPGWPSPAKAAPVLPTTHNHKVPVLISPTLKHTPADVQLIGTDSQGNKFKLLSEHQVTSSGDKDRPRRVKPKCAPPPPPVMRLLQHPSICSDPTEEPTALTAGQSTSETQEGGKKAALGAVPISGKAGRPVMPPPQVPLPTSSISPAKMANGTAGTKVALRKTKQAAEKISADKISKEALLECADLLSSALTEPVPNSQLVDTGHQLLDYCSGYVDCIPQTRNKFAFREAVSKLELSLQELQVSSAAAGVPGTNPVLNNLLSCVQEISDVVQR
Nature of the test: Arg (h) kinase assay (Upstate, 33P-ATP filtermat). The settings on record: 100 uM of inhibitor; ATP 45 uM. On the procedure:
as §1
as §2, with “Arg” for “Abl”
as §3

The target in test [3] is T3, CHK1 (h) (Homo sapiens, UniProt O14757).
T3 construct: purchased Upstate Ltd
T3 sequence (O14757 1-476): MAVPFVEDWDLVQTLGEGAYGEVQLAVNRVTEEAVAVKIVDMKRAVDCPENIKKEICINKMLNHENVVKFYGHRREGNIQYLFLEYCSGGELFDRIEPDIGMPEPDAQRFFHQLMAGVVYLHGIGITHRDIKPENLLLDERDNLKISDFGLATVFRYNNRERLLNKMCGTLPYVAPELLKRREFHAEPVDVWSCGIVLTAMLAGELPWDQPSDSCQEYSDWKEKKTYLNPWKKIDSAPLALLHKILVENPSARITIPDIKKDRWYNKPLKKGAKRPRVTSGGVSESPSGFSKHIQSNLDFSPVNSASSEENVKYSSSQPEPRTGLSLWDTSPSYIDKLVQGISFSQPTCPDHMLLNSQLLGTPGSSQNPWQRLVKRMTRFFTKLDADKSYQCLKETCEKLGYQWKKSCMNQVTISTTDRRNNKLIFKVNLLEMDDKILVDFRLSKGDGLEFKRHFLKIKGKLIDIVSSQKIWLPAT
The test is described as follows: CHK1 (h) kinase assay (Upstate, 33P-ATP filtermat). As to conditions: 100 uM of inhibitor; ATP 90 uM. Here is the method:
as §1
In a final reaction volume of 25 μl, CHK1 (h) (5-10 mU) is incubated with 8 mM MOPS pH 7.0, 0.2 mM EDTA, 200 μM […], 10 mM MgAcetate and […]-33P-ATP] (specific activity approx. 500 cpm/pmol, concentration as required). The reaction is initiated by the addition of the MgATP mix. After incubation for 40 minutes at room temperature, the reaction is stopped by the addition of 5 μl of a 3% phosphoric acid solution. 10 μl of the reaction is then spotted onto a P30 filtermat and washed three times for 5 minutes in 75 mM phosphoric acid and once in methanol prior to drying and scintillation counting.
as §3

Test [4] deals with T4, p70S6K (h) (Homo sapiens, UniProt P23443).
T4 construct: purchased Upstate Ltd
T4 sequence (P23443 whole entry): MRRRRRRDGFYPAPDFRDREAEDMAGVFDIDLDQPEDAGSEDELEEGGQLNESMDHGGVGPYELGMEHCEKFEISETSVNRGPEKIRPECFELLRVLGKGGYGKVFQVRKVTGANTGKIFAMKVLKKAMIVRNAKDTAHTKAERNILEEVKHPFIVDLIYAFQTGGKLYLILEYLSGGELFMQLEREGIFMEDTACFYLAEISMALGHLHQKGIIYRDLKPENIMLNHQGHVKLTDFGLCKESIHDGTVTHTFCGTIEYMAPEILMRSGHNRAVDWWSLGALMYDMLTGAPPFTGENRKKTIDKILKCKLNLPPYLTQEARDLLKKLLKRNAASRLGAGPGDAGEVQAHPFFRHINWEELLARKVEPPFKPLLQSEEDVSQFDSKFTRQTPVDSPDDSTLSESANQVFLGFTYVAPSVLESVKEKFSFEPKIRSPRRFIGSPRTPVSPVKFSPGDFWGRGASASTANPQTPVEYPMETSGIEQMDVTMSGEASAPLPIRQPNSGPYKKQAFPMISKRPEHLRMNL
The test is described as follows: p70S6K (h) kinase assay (Upstate, 33P-ATP filtermat). The settings on record: 100 uM of inhibitor, ATP 15 uM; for inhibition at 100 µM: read-out: P70S6 (h) % inhibition. On the procedure: as §1
as §2, with “μl, p70S6K” for “μl, Abl”, “EDTA, 100” for “EDTA, 50”, “μM KKRNRTLTV,” for “μM EAIYAAPFAKKK,”
as §3

The target of test [5] is T5, KDR (h) (Homo sapiens, UniProt P35968).
T5 construct: purchased Upstate Ltd
T5 sequence (P35968 20-1356): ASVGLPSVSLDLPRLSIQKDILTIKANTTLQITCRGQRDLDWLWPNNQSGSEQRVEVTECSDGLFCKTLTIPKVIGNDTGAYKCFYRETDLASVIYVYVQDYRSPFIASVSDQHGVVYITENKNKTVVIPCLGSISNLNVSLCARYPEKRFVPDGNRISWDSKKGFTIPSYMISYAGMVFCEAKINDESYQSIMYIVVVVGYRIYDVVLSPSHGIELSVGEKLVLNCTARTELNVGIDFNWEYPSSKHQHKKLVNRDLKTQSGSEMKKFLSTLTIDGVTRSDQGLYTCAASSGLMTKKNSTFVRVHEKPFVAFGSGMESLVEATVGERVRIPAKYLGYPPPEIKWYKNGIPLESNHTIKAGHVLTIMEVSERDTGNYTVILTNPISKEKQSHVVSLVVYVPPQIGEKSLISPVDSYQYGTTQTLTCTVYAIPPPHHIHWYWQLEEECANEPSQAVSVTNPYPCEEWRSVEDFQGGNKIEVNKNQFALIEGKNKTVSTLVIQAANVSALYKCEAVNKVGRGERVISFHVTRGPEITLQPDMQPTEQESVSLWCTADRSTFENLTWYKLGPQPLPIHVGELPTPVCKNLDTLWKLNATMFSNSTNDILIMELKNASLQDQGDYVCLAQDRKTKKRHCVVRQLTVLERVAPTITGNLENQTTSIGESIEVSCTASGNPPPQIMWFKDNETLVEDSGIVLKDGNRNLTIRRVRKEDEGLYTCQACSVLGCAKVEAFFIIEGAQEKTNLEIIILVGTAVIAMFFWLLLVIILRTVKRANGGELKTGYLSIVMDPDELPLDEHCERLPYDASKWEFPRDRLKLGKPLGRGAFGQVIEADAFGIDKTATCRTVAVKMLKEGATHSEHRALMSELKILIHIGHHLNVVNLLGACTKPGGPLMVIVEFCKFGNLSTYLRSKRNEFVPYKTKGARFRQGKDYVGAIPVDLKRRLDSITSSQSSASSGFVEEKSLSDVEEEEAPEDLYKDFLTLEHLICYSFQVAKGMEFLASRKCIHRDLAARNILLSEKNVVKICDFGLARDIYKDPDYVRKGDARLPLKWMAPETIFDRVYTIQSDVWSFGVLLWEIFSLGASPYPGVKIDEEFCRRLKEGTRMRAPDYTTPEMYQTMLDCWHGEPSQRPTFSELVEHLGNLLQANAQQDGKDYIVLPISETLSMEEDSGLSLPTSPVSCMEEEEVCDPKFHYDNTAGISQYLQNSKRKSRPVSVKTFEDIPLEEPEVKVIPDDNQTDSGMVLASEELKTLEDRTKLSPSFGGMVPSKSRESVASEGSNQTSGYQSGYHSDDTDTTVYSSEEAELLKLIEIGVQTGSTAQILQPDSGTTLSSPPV
Nature of the test: KDR (h) kinase assay (Upstate, 33P-ATP filtermat). As to conditions: 100 uM of inhibitor; ATP 90 uM. Here is the method:
as §1
as §2, with “KDR” for “Abl”, “0.33 mg/ml myelin basic protein,” for “50 μM EAIYAAPFAKKK,”
as §3

For test [6], the target named is T6, Aurora-A (h) (Homo sapiens, UniProt O14965).
T6 construct: purchased Upstate Ltd
T6 sequence (O14965 1-403): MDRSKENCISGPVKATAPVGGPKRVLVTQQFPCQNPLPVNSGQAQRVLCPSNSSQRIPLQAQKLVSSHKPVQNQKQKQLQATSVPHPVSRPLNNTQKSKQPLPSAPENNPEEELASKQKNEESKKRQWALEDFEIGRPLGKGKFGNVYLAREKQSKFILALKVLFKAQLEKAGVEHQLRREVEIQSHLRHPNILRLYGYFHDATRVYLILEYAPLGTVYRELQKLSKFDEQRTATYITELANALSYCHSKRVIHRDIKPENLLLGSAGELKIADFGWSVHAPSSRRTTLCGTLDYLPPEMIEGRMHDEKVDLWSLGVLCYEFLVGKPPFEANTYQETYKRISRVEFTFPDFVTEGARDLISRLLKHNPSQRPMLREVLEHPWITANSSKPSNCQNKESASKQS
The test is described as follows: Aurora-A (h) kinase assay (Upstate, 33P-ATP filtermat). The settings on record: 100 uM of inhibitor, ATP 15 uM; for inhibition at 100 µM: read-out: AuroraA (h) % inhibition. On the procedure:
as §1
In a final reaction volume of 25 μl, Aurora-A (h) (5-10 mU) is incubated with 8 mM MOPS pH 7.0, 0.2 mM EDTA, 200 μM LRRASLG (Kemptide), 10 mM MgAcetate and […]-33P-ATP] (specific activity approx. 500 cpm/pmol, concentration as required). The reaction is initiated by the addition of the MgATP mix. After incubation for 40 minutes at room temperature, the reaction is stopped by the addition of 5 μl of a 3% phosphoric acid solution. 10 μl of the reaction is then spotted onto a P30 filtermat and washed three times for 5 minutes in 50 mM phosphoric acid and once in methanol prior to drying and scintillation counting.
as §3

A word on the inhibition: it is the relative decrease from the control value, in per cent.

T1 sequence (P00519 whole entry): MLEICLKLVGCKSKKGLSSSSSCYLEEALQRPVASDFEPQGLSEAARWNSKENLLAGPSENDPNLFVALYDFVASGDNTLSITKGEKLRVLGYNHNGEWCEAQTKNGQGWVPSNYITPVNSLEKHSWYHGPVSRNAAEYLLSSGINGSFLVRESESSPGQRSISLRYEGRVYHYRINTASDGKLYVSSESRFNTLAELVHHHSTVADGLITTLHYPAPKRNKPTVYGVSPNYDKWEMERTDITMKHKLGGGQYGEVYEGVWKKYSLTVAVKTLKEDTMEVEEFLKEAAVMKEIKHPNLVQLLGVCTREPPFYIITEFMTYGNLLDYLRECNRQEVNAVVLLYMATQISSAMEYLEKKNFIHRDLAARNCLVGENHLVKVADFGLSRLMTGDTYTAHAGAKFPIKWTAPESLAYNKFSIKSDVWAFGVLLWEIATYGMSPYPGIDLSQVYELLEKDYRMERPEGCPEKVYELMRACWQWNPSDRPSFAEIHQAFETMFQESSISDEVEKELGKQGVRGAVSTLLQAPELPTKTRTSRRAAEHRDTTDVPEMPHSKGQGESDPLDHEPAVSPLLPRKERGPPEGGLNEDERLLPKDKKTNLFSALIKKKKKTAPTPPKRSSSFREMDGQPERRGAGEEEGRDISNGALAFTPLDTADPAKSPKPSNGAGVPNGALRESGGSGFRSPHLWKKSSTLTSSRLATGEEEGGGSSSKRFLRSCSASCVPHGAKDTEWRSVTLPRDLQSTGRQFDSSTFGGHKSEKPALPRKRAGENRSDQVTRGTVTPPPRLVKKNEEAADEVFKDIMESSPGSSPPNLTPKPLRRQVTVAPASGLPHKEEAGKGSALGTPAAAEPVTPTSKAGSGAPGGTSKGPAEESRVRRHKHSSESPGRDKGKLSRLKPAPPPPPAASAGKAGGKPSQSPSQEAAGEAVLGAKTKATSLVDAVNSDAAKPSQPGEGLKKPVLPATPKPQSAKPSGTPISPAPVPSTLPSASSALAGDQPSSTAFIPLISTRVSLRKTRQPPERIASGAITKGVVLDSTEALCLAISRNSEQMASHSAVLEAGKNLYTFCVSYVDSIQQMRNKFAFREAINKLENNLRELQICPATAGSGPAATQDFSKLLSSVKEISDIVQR

For the molecule `Nc1nc2ccc(-c3cn[nH]c3)cc2[n+]([O-])n1` [Example 7, 1-Oxy-7-(1H-pyrazol-4-yl)-benzo[1,2,4]triazin-3-ylamine], the “Abl (h) % inhibition” value in test [1] was determined as 86%. Also, the “Arg (h) % inhibition” value in test [2] stood at 81%. Moreover, in test [3], the “Chk1 (h) % inhibition” value is 31%. Also, the “P70S6 (h) % inhibition” value in test [4] is recorded as 99%. Also, in test [5], the “KDR (h) % inhibition” value is on record as 98%. Further, the “AuroraA (h) % inhibition” value in test [6] was 98%.

`[O-][n+]1nc(Nc2ccc(N3CCNCC3)nc2)nc2ccccc21` [Example 20, (1-Oxy-benzo[1,2,4]triazin-3-yl)-(6-piperazin-1-yl-pyridin-3-yl)-amine]: the “Abl (h) % inhibition” value in test [1] is 72%. Also, the “Arg (h) % inhibition” value in test [2] is on record as 77%. Moreover, the “Chk1 (h) % inhibition” value in test [3] came to 1%. For the same molecule, in test [6], the “AuroraA (h) % inhibition” value stood at 52%.

With `Cc1cc(Nc2nnc3ccccc3n2)n[nH]1` [Example 11, Benzo[1,2,4]triazin-3-yl-(5-methyl-1H-pyrazol-3-yl)-amine], the inhibition at 100 µM stood at 36% in test [1], 40% in test [2], 32% in test [3] and 37% in test [6].

In the case of `c1ccc2nc(Nc3ccc(N4CCNCC4)cc3)nnc2c1` [Example 6, Benzo[1,2,4]triazin-3-yl-(4-piperazin-1-yl-phenyl)-amine], the inhibition at 100 µM worked out at 89% in test [1], 92% in test [2], 33% in test [3] and 41% in test [6].

For the molecule `c1ccc2nc(Nc3ccc(N4CCNCC4)nc3)nnc2c1` [Example 19, Benzo[1,2,4]triazin-3-yl-(6-piperazin-1-yl-pyridin-3-yl)-amine], the inhibition at 100 µM in test [1] was determined as 89%; in test [2], 95%; in test [6] it was 79%.

On to `c1cncc(Nc2nnc3ccccc3n2)c1` [Example 3, Benzo[1,2,4]triazin-3-yl-pyridin-3-yl-amine], for which the inhibition at 100 µM in test [1] is 65%; in test [2] it was 71%; in test [3], 21%; in test [4], 9%; in test [6], 68%.

Regarding `[O-][n+]1nc(Nc2ccc(N3CCNCC3)cc2)nc2ccccc21` [Example 5, (1-Oxy-benzo[1,2,4]triazin-3-yl)-(4-piperazin-1-yl-phenyl)-amine], the “Abl (h) % inhibition” value in test [1] worked out at 83%. In addition, the “Arg (h) % inhibition” value in test [2] was 78%. Besides, the “Chk1 (h) % inhibition” value in test [3] turned out to be 7%. For the same molecule, the “AuroraA (h) % inhibition” value in test [6] is 24%.

Take `Clc1ccc2nnc(Nc3cccnc3)nc2c1` [Example 21, (6-Chloro-benzo[1,2,4]triazin-3-yl)-pyridin-3-yl-amine]: the inhibition at 100 µM was determined as 76% in test [1], 84% in test [2] and 58% in test [6].

For the molecule `Nc1nnc2cc(-c3cn[nH]c3)ccc2n1` [Example 8, 7-(1H-Pyrazol-4-yl)-benzo[1,2,4]triazin-3-ylamine], the inhibition at 100 µM was found to be 87% in test [1]; 82% in test [2]; 26% in test [3]; 97% in test [4]; 96% in test [5]; 100% in test [6].
